Assay results from the NIST ThermoML archive (doi:10.1021/je060271a).

Conditions: 283.15 K, Liquid, Vibrating tube method

CCCCCC(=O)OCC(COC(=O)CCCCC)(COC(=O)CCCCC)COC(=O)CCCCC [pentaerythritol tetrahexanoate]
Conditions	mass density [kg/m3]
17954 kPa	1014.2
17972 kPa	1014.2
17987 kPa	1014.3
18002 kPa	1014.3
18020 kPa	1014.4
18035 kPa	1014.3
18050 kPa	1014.4
18068 kPa	1014.4
18083 kPa	1014.3
18098 kPa	1014.3
18116 kPa	1014.5
18131 kPa	1014.3
18146 kPa	1014.4
18161 kPa	1014.3
18179 kPa	1014.4
18195 kPa	1014.4
18210 kPa	1014.5
18228 kPa	1014.4
18243 kPa	1014.5
18259 kPa	1014.6
18277 kPa	1014.5
18292 kPa	1014.4
18308 kPa	1014.5
18326 kPa	1014.5
18341 kPa	1014.6
18356 kPa	1014.6
18375 kPa	1014.5
18391 kPa	1014.5
18407 kPa	1014.6
18425 kPa	1014.6
18441 kPa	1014.6
18457 kPa	1014.6
18472 kPa	1014.5
18491 kPa	1014.6
18506 kPa	1014.6
18522 kPa	1014.6
18541 kPa	1014.5
18557 kPa	1014.7
18576 kPa	1014.6
18592 kPa	1014.6
18608 kPa	1014.7
18624 kPa	1014.6
18643 kPa	1014.6
18659 kPa	1014.7
18676 kPa	1014.7
18695 kPa	1014.7
18711 kPa	1014.7
18727 kPa	1014.7
18746 kPa	1014.7
18763 kPa	1014.8
18779 kPa	1014.7
18796 kPa	1014.7
18815 kPa	1014.9
18832 kPa	1014.7
18848 kPa	1014.9
18868 kPa	1014.8
18884 kPa	1014.9
18901 kPa	1014.7
18917 kPa	1014.9
18937 kPa	1014.7
18954 kPa	1014.9
18970 kPa	1014.9
18990 kPa	1014.8
19005 kPa	1014.9
19024 kPa	1014.9
19040 kPa	1014.9
19057 kPa	1015
19075 kPa	1014.8
19091 kPa	1014.9
19107 kPa	1014.8
19126 kPa	1015
19142 kPa	1015
19161 kPa	1015
19177 kPa	1014.9
19193 kPa	1015
19212 kPa	1014.9
19228 kPa	1014.9
19245 kPa	1015.1
19264 kPa	1015
19281 kPa	1015.1
19297 kPa	1014.9
19313 kPa	1014.9
19333 kPa	1014.9
19350 kPa	1015
19366 kPa	1015
19382 kPa	1015.1
19402 kPa	1015
19418 kPa	1015.2
19438 kPa	1015.1
19455 kPa	1015.2
19471 kPa	1015.1
19488 kPa	1015.1
19509 kPa	1015.1
19525 kPa	1015.1
19542 kPa	1015.1
19559 kPa	1015.2
19579 kPa	1015.2
19596 kPa	1015.1
19616 kPa	1015.1
19633 kPa	1015.2
19649 kPa	1015.3
19666 kPa	1015.2
19686 kPa	1015.3
19703 kPa	1015.3
19720 kPa	1015.3
19741 kPa	1015.4
19758 kPa	1015.3
19778 kPa	1015.2
19796 kPa	1015.3
19813 kPa	1015.3
19830 kPa	1015.3
19851 kPa	1015.3
19868 kPa	1015.3
19885 kPa	1015.3
19906 kPa	1015.4
19922 kPa	1015.4
19941 kPa	1015.3
19957 kPa	1015.4
19973 kPa	1015.4
19989 kPa	1015.4
20008 kPa	1015.2
20024 kPa	1015.4
20040 kPa	1015.4
20059 kPa	1015.4
20075 kPa	1015.4
20094 kPa	1015.4
20110 kPa	1015.4
20126 kPa	1015.5
20143 kPa	1015.5
20162 kPa	1015.5
20178 kPa	1015.4
20194 kPa	1015.6
20213 kPa	1015.5
20228 kPa	1015.5
20246 kPa	1015.4
20262 kPa	1015.5
20277 kPa	1015.6
20293 kPa	1015.5
20312 kPa	1015.6
20328 kPa	1015.6
20343 kPa	1015.5
20362 kPa	1015.6
20378 kPa	1015.6
20395 kPa	1015.7
20410 kPa	1015.6
